The values that follow come from patent US12447153B2, “HER2 mutation inhibitors” (Array BioPharma Inc., priority 2021, dated 2025).

SMILES strings stand for the structures. Bounds are passed on as bounds.

Usually IC50 stands for the concentration that gives 50% inhibition.

One assay addresses EGFR wild type (EGFR WT) (Homo sapiens (Human), UniProt P00533). In words: Cellular Phosphorylation Assay, Assay 5 (EGF-stimulated EGFR phosphorylation, NIH 3T3 cells). Format: cell-based. The note with it: EGF-stimulated EGFR WT phosphorylation.
Another assay deals with ErbB2 WT (Homo sapiens (Human), UniProt P04626). In words: ErbB Enzyme Assay (HTRF KinEASE-TK), Assay 2. Format: biochemical. The note with it: ErbB2 WT enzyme.
Another assay concerns the target EGFR (Homo sapiens (Human), UniProt P00533). In words: ErbB Enzyme Assay (HTRF KinEASE-TK), Assay 3. The note with it: EGFR enzyme. Format: biochemical.
Assay [1] deals with ErbB2 with Exon 20 YVMA insertion (HER2-YVMA) (Homo sapiens (Human), UniProt P04626, INS775YVMA). In words: Cellular Phosphorylation Assay, Assay 4 (constitutive ErbB2 phosphorylation, NIH 3T3 cells). Format: cell-based. The note with it: ErbB2 YVMA phosphorylation.
Chain of ErbB2 with Exon 20 YVMA insertion (HER2-YVMA) (P04626 other isoform, or with tags, fused parts or gaps ins YVMA behind 775): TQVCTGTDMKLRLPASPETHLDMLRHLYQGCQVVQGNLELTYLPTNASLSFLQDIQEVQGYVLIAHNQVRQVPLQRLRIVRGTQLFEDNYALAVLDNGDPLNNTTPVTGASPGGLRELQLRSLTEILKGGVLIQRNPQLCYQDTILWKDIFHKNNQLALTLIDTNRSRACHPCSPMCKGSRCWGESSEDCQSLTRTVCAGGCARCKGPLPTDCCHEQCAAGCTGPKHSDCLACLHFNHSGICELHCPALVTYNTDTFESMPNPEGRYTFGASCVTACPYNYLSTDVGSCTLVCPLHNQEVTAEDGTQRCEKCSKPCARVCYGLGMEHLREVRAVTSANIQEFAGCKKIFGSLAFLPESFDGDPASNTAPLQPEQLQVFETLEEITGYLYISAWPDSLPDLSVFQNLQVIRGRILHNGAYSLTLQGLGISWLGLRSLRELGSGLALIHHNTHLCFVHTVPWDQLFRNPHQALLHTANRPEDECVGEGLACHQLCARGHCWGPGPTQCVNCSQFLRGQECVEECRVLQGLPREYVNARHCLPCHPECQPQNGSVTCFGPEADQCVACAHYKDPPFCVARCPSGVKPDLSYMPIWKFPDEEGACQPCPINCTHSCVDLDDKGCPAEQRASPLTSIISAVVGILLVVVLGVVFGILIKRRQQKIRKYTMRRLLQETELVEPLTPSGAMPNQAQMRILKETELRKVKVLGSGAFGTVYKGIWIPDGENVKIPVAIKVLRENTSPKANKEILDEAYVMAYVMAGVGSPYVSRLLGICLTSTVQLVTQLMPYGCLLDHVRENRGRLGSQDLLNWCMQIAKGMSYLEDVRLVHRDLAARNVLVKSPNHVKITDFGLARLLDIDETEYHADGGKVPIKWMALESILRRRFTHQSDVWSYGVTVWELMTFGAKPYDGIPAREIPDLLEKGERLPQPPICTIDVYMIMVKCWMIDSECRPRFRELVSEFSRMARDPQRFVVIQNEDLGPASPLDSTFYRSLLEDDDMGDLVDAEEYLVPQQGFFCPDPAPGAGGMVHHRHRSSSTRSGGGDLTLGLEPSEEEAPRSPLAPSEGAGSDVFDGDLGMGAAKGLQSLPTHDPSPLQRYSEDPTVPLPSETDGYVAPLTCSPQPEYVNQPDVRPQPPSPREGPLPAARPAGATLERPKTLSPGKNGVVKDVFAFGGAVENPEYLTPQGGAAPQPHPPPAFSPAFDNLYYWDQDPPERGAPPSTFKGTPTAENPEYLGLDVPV

Chain of EGFR (P00533 25-1210): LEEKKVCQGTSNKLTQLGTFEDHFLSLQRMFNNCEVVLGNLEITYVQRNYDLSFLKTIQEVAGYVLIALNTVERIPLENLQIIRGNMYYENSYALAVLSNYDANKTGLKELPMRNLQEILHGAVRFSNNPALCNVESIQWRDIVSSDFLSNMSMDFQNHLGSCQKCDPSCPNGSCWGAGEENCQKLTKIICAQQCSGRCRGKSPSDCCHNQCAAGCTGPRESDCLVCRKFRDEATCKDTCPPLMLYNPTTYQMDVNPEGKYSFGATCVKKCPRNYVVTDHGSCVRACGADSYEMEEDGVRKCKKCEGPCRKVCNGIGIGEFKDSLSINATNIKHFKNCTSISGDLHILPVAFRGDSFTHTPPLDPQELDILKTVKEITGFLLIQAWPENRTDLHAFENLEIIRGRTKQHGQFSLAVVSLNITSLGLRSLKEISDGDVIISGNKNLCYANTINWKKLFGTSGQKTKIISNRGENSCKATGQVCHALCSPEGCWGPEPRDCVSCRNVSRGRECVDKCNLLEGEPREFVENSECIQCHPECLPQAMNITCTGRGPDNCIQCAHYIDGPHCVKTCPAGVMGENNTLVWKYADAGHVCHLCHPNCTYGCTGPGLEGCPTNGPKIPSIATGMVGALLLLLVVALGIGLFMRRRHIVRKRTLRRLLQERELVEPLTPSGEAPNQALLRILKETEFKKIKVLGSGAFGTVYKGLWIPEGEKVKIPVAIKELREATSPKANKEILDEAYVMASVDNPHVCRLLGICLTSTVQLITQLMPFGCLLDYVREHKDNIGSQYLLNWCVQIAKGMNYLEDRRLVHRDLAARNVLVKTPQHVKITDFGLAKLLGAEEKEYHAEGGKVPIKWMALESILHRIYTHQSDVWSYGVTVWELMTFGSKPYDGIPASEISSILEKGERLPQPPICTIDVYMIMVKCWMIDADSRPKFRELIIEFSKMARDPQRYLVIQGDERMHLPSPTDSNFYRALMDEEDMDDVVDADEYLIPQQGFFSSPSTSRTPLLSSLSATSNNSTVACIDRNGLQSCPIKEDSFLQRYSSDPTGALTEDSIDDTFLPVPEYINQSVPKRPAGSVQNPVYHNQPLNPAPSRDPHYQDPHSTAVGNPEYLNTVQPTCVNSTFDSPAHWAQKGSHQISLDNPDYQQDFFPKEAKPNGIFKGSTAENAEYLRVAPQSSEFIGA
Chain of EGFR wild type (EGFR WT) (P00533 25-1210): as above
Chain of ErbB2 WT (P04626 23-1255): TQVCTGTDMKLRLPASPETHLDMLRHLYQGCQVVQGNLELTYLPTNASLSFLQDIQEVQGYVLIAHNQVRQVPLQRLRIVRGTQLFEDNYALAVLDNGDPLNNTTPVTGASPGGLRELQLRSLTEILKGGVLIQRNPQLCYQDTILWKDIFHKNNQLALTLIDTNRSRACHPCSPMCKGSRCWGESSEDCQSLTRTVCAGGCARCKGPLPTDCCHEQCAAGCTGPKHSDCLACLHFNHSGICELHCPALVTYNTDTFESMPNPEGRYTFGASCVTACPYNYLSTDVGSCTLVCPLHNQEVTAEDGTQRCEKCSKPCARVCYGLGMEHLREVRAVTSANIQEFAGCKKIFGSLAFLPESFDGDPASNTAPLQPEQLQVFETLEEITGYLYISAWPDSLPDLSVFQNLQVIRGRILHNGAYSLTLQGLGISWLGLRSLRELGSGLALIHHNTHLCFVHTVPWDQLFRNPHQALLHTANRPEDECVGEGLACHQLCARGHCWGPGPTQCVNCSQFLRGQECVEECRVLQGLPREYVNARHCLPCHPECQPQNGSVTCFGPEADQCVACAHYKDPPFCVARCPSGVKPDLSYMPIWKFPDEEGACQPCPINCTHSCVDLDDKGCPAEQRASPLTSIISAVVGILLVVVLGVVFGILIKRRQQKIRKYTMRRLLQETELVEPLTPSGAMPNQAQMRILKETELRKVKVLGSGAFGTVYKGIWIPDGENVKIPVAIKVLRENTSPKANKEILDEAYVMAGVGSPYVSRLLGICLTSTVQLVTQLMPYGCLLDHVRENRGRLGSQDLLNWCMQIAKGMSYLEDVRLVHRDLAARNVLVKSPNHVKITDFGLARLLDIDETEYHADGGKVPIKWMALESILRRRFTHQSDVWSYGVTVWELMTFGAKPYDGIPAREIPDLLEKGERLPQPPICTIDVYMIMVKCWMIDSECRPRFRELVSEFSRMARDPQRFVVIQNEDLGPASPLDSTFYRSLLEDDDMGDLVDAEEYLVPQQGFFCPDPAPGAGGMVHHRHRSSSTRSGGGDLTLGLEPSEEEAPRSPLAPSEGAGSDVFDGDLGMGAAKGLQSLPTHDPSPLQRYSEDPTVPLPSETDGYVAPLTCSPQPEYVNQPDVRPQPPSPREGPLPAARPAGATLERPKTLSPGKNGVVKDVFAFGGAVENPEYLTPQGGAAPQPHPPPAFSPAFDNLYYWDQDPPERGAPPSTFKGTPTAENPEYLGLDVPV

Take `C=CC(=O)N1CCCC(c2ccc3ncnc(Nc4ccc(Oc5ccn6ncnc6c5)c(C)c4F)c3n2)CC1` (stereo not drawn) [Example 189, 1-(4-(4-((4-([1,2,4]triazolo[1,5-a]pyridin-7-yloxy)-2-fluoro-3-methylphenyl)amino)pyrido[3,2-d]pyrimidin-6-yl)azepan-1-yl)prop-2-en-1-one]: the IC50 against EGFR wild type (EGFR WT) was 1790 nM; at ErbB2 WT it was 11.1 nM; against EGFR, 1280 nM; in assay [1], 41.2 nM.
For the molecule `C=CC(=O)N1[C@@H]2CC[C@H]1CC(c1ccc3ncnc(Nc4cc(C)c(Oc5ccn6ncnc6c5)cc4F)c3n1)C2` (stereo partly drawn) [Example 194, 1-((1R,5S)-3-(4-((4-([1,2,4]triazolo[1,5-a]pyridin-7-yloxy)-2-fluoro-5-methylphenyl)amino)pyrido[3,2-d]pyrimidin-6-yl)-8-azabicyclo[3.2.1]octan-8-yl)prop-2-en-1-one], the IC50 was 2780 nM on EGFR wild type (EGFR WT), 171 nM against ErbB2 WT, 5800 nM at EGFR and 33.9 nM in assay [1].
On the same counts, the results for `C=CC(=O)N1CC(c2ccc3ncnc(Nc4ccc(Oc5ccc6c(c5)ncn6C)c(C)c4F)c3n2)CCC12CC2` (stereo not drawn) [Example 197, 1-(6-(4-((2-fluoro-3-methyl-4-((1-methyl-1H-benzo[d]imidazol-5-yl)oxy)phenyl)amino)pyrido[3,2-d]pyrimidin-6-yl)-4-azaspiro[2.5]octan-4-yl)prop-2-en-1-one] are 853 nM, 21.1 nM, 650 nM and 35.2 nM.
On the same counts, the results for `C=CC(=O)N1CCCC(c2ccc3ncnc(Nc4ccc(Oc5ccn6ncnc6c5)c(C)c4F)c3n2)C1` (stereo not drawn) [Example 198, 1-(3-(4-((4-([1,2,4]triazolo[1,5-a]pyridin-7-yloxy)-2-fluoro-3-methylphenyl)amino)pyrido[3,2-d]pyrimidin-6-yl)piperidin-1-yl)prop-2-en-1-one] are 809 nM, 24.2 nM, 342 nM and 17 nM.
As for `C=CC(=O)N1C[C@H]2C[C@H](c3ccc4ncnc(Nc5ccc(Oc6ccn7ncnc7c6)c(C)c5F)c4n3)C[C@H]2C1` [Example 200, 1-((3aR,5s,6aS)-5-(4-((4-([1,2,4]triazolo[1,5-a]pyridin-7-yloxy)-2-fluoro-3-methylphenyl)amino)pyrido[3,2-d]pyrimidin-6-yl)hexahydrocyclopenta[c]pyrrol-2(1H)-yl)prop-2-en-1-one], the IC50 is ≥ 5000 nM on EGFR wild type (EGFR WT), 16.2 nM against ErbB2 WT, 2780 nM on EGFR and 83.5 nM in assay [1].
Consider `C=CC(=O)N1C[C@H]2C[C@H](c3ccc4ncnc(Nc5cc(C)c(Oc6ccn7ncnc7c6)cc5F)c4n3)C[C@H]2C1` [Example 201, 1-((3aR,5s,6aS)-5-(4-((4-([1,2,4]triazolo[1,5-a]pyridin-7-yloxy)-2-fluoro-5-methylphenyl)amino)pyrido[3,2-d]pyrimidin-6-yl)hexahydrocyclopenta[c]pyrrol-2(1H)-yl)prop-2-en-1-one], for which the half-inhibitory concentration (IC50) against EGFR wild type (EGFR WT) was ≥ 5000 nM; against ErbB2 WT it was 68.1 nM; at EGFR it was 9450 nM; in assay [1] it was 213 nM.
On the same counts, the results for `C=CC(=O)N1CCCCC(c2ccc3ncnc(Nc4ccc(Oc5ccn6ncnc6c5)c(C)c4)c3n2)C1` (stereo not drawn) [Example 204, 1-(3-(4-((4-([1,2,4]triazolo[1,5-a]pyridin-7-yloxy)-3-methylphenyl)amino)pyrido[3,2-d]pyrimidin-6-yl)azepan-1-yl)prop-2-en-1-one] are 2940 nM, 13.2 nM, 900 nM and 20.8 nM.
On to `C=CC(=O)N1[C@@H]2CC[C@H]1C[C@@H](c1ccc3ncnc(Nc4cc(C)c(Oc5ccn6ncnc6c5)cc4F)c3n1)C2` [Example 206, 1-((1R,3r,5S)-3-(4-((4-([1,2,4]triazolo[1,5-a]pyridin-7-yloxy)-2-fluoro-5-methylphenyl)amino)pyrido[3,2-d]pyrimidin-6-yl)-8-azabicyclo[3.2.1]octan-8-yl)prop-2-en-1-one], for which the IC50 at EGFR wild type (EGFR WT) is ≥ 5000 nM; at ErbB2 WT it was 151 nM; at EGFR, 4770 nM; in assay [1], 115 nM.
The like results for `C=C(F)C(=O)N1[C@@H]2CC[C@H]1C[C@@H](c1ccc3ncnc(Nc4cc(C)c(Oc5ccn6ncnc6c5)cc4F)c3n1)C2` [Example 207, 1-((1R,3r,5S)-3-(4-((4-([1,2,4]triazolo[1,5-a]pyridin-7-yloxy)-2-fluoro-5-methylphenyl)amino)pyrido[3,2-d]pyrimidin-6-yl)-8-azabicyclo[3.2.1]octan-8-yl)-2-fluoroprop-2-en-1-one] were, in that order, ≥ 5000 nM, 150 nM, ≥ 10000 nM and 685 nM.
The like results for `CC#CC(=O)N1[C@@H]2CC[C@H]1C[C@@H](c1ccc3ncnc(Nc4cc(C)c(Oc5ccn6ncnc6c5)cc4F)c3n1)C2` [Example 208, 1-((1R,3r,5S)-3-(4-((4-([1,2,4]triazolo[1,5-a]pyridin-7-yloxy)-2-fluoro-5-methylphenyl)amino)pyrido[3,2-d]pyrimidin-6-yl)-8-azabicyclo[3.2.1]octan-8-yl)but-2-yn-1-one] were, in that order, ≥ 5000 nM, 172 nM, ≥ 10000 nM and 328 nM.
Consider `C=CC(=O)N1[C@@H]2CC[C@H]1C[C@@H](c1ccc3ncnc(Nc4ccc(Oc5ccn6ncnc6c5)c(C)c4)c3n1)C2` [Example 215, 1-((1R,3r,5S)-3-(4-((4-([1,2,4]triazolo[1,5-a]pyridin-7-yloxy)-3-methylphenyl)amino)pyrido[3,2-d]pyrimidin-6-yl)-8-azabicyclo[3.2.1]octan-8-yl)prop-2-en-1-one], for which the IC50 is ≥ 5000 nM at EGFR wild type (EGFR WT), 29.5 nM against ErbB2 WT, 3310 nM against EGFR and 29.5 nM in assay [1].
As for `C=CC(=O)N1C[C@H]2CC[C@@H](C1)[C@@H]2c1ccc2ncnc(Nc3ccc(Oc4ccn5ncnc5c4)c(C)c3)c2n1` [Example 221, 1-((1R,5S,8r)-8-(4-((4-([1,2,4]triazolo[1,5-a]pyridin-7-yloxy)-3-methylphenyl)amino)pyrido[3,2-d]pyrimidin-6-yl)-3-azabicyclo[3.2.1]octan-3-yl)prop-2-en-1-one], the IC50 on EGFR wild type (EGFR WT) was ≥ 5000 nM; at ErbB2 WT, 28.5 nM; against EGFR, 2690 nM; in assay [1], 78 nM.
For `C=CC(=O)N1C[C@H]2CC[C@@H](C1)[C@@H]2c1ccc2ncnc(Nc3ccc(Oc4ccn5ncnc5c4)c(C)c3F)c2n1` [Example 223, 1-((1R,5S,8r)-8-(4-((4-([1,2,4]triazolo[1,5-a]pyridin-7-yloxy)-2-fluoro-3-methylphenyl)amino)pyrido[3,2-d]pyrimidin-6-yl)-3-azabicyclo[3.2.1]octan-3-yl)prop-2-en-1-one], the 50% inhibitory concentration (IC50) at EGFR wild type (EGFR WT) was ≥ 5000 nM; against ErbB2 WT, 48.9 nM; against EGFR, 1960 nM; in assay [1] it was 145 nM.
The like results for `C=CC(=O)N1[C@@H]2CC[C@H]1C[C@@H](c1ccc3ncnc(Nc4cc(C)c(Oc5cnc6c(c5)ncn6C)cc4F)c3n1)C2` [Example 226, 1-((1R,3r,5S)-3-(4-((2-fluoro-5-methyl-4-((3-methyl-3H-imidazo[4,5-b]pyridin-6-yl)oxy)phenyl)amino)pyrido[3,2-d]pyrimidin-6-yl)-8-azabicyclo[3.2.1]octan-8-yl)prop-2-en-1-one] were, in that order, ≥ 5000 nM, 310 nM, ≥ 10000 nM and 37.5 nM.
For `C=CC(=O)N1C[C@H]2C[C@@H]1[C@H](c1ccc3ncnc(Nc4ccc(Oc5ccn6ncnc6c5)c(Cl)c4F)c3n1)C2` [Example 231, 1-((1R,4R,6R)-6-(4-((4-([1,2,4]triazolo[1,5-a]pyridin-7-yloxy)-3-chloro-2-fluorophenyl)amino)pyrido[3,2-d]pyrimidin-6-yl)-2-azabicyclo[2.2.1]heptan-2-yl)prop-2-en-1-one], the IC50 on EGFR wild type (EGFR WT) stood at 148 nM; on ErbB2 WT it was 10 nM; on EGFR it was 70.5 nM; in assay [1], 8.7 nM.
`C=CC(=O)N1CC[C@H]2C[C@@H]1CN2c1ccc2ncnc(Nc3ccc(Oc4cnc5c(c4)ncn5C)c(C)c3F)c2n1` [Example 237, 1-((1R,5S)-6-(4-((2-fluoro-3-methyl-4-((3-methyl-3H-imidazo[4,5-b]pyridin-6-yl)oxy)phenyl)amino)pyrido[3,2-d]pyrimidin-6-yl)-2,6-diazabicyclo[3.2.1]octan-2-yl)prop-2-en-1-one]: the IC50 was ≥ 5000 nM against EGFR wild type (EGFR WT), 1330 nM on ErbB2 WT, ≥ 10000 nM against EGFR and 256 nM in assay [1].
On the same counts, the results for `C=CC(=O)N1C2CCC1CN(c1ccc3ncnc(Nc4ccc(Oc5ccn6ncnc6c5)c(Cl)c4F)c3n1)C2` [Example 238, 1-(3-(4-((4-([1,2,4]triazolo[1,5-a]pyridin-7-yloxy)-3-chloro-2-fluorophenyl)amino)pyrido[3,2-d]pyrimidin-6-yl)-3,8-diazabicyclo[3.2.1]octan-8-yl)prop-2-en-1-one] are 90.3 nM, 11.7 nM, 114 nM and 5.5 nM.
The like results for `CC#CC(=O)N1C2CCC1CN(c1ccc3ncnc(Nc4ccc(Oc5ccn6ncnc6c5)c(C)c4F)c3n1)C2` [Example 240, 1-(3-(4-((4-([1,2,4]triazolo[1,5-a]pyridin-7-yloxy)-2-fluoro-3-methylphenyl)amino)pyrido[3,2-d]pyrimidin-6-yl)-3,8-diazabicyclo[3.2.1]octan-8-yl)but-2-yn-1-one] were, in that order, 2020 nM, 143 nM, 4900 nM and 92.4 nM.
